The record followed here is ChEMBL document CHEMBL2216752, “Carnitine palmitoyltransferase (CPT) modulators: a medicinal chemistry perspective on 35 years of research” (J Med Chem, 2011).

The pIC50 is the negative decadic logarithm of the IC50, by convention in mol/L. One may read the pEC50 as the negative decadic logarithm of the EC50, by convention in mol/L. Broadly, the ED50 is the midpoint of the dose-response relation. As a reminder, the LD50 is the dose expected to kill half of the subjects tested.

The subject of data set [1] is Mus musculus. The data set can be described thus: Reduction in blood glucose in fed db/db mouse at 50 to 100 mg/kg, po measured 2 to 4 hrs post dose. Type of data set: functional. More on the design: scale not given: the % may be the effect or the level left.
Data set [2] has as its system Canis familiaris. The data set can be described thus: Reduction in fasting glucose in STZ-treated dog at 2.5 mg/kg/day, po for 7 days. Type of data set: functional, Canis lupus familiaris. On the set-up: scale not given: the % may be the effect or the level left.
The nature of data set [3]: Inhibition of carnitine palmitoyltransferase in rat liver mitochondria assessed as formation of formation of palmitoyl[3H]carnitine from palmitoyl-CoA and [3H]carnitine.
Data set [4] deals with Rattus norvegicus. The data set can be described thus: Suppression of labeled pyruvate conversion to [14C]glucose in Sprague-Dawley rat at 10 to 20 mg/kg, po. The class given is functional. Conditions: dose mg/kg 10-20.
Data set [5] relates to Rattus norvegicus. Kind of data set: Reduction in KB level in alloxan-treated rat at 25 to 50 mg/kg, po measured 2 to 5 hrs post dose. The class given is functional. More on the design: scale not given: the % may be the effect or the level left. The conditions noted are these: […].
Data set [6] in a line: Inhibition of carnitine palmitoyltransferase hemidiaphragms isolated from fasted pretreated rat assessed as reduction of [14]CO2 production from [1-14]-palmitate or [14C]-oleate.
Data set [7] deals with Mus musculus. The data set can be described thus: Reduction in blood glucose in fasted db/db mouse at 50 to 100 mg/kg, po measured 2 to 4 hrs post dose. Type of data set: functional. On the set-up: scale not given: the % may be the effect or the level left.
The subject of data set [8] is Canis familiaris. Kind of data set: Reduction in blood glucose in STZ-treated dog at 0.7 to 2 mg/kg/day, po for 7 days measured 6 hrs post dose (reference value: 9 mM). Type of data set: functional, Canis lupus familiaris.
Data set [9] relates to Canis familiaris. The data set can be described thus: Reduction in blood glucose in alloxan -treated dog at 7.5 mg/kg, po administered as single dose measured 6 hrs post dose (reference value: 9 mM). Type of data set: functional, Canis lupus familiaris.
Data set [10] is described as follows: Inhibition of rat FAO.
In data set [11] the test system is Rattus norvegicus. Kind of data set: Increase in coronary flow in perfused rat heart at 5 mg/kg, sc administered as single dose administered 120 mins before start of perfusion. Type of data set: functional. The conditions noted are these: route subcutaneous.
Data set [12] in a line: Inhibition of human FAO.
Data set [13] has as its system Mus musculus. The data set can be described thus: Reduction in glucose AUC in db/db mouse at 19 umol/kg/day, po for 4 days administering last dose 1 hr before glucose load by OGTT test. Type of data set: functional. On the set-up: scale not given: the % may be the effect or the level left.
The species named for data set [14] is Rattus norvegicus. Kind of data set: Reduction in oxidation rate in rat liver mitochondria treated at 0.05% or 0.2% dose through food-admix for 12 weeks by polarographic oxygen uptake method. Type of data set: functional, organism-based. On the set-up: scale not given: the % may be the effect or the level left.
The test system of data set [15] is Rattus norvegicus. Kind of data set: Reduction in blood glucose in po dosed fasted Sprague-Dawley rat. The class given is functional.
The species entered for data set [16] is Homo sapiens. Kind of data set: Inhibition of carnitine palmitoyltransferase in human fibroblasts assessed as [14]CO2 production from [1-14C]pyruvate at 5 to 50 uM by radiometric assay. More on the design: scale not given: the % may be the effect or the level left.
For data set [17], the system named is Rattus norvegicus. The data set can be described thus: Reduction in blood KB in fasted Sprague-Dawley rat at 0.6 to 60 umol/kg, po. Type of data set: functional. On the set-up: scale not given: the % may be the effect or the level left.
In data set [18] the test system is Sus scrofa. The data set can be described thus: Reduction in blood glucose in STZ-treated diabetic pig at 10 to 40 umol/kg, iv measured 6 hrs post dose. The class given is functional. On the set-up: scale not given: the % may be the effect or the level left.
Data set [19] deals with Rattus norvegicus. The data set can be described thus: Reduction in total cholesterol level in fasted Sprague-Dawley rat at 8 to 300 umol/kg, po measured 24 hrs post dose. Type of data set: functional. On the set-up: scale not given: the % may be the effect or the level left.
The test system of data set [20] is Cavia porcellus. Kind of data set: Reduction in blood glucose in SPF-white inbred guinea pig at 7 to 56 umol/kg, po. Type of data set: functional.
In data set [21] the test system is Mus musculus. Kind of data set: Reduction in FBG in db/db mouse at 19 umol/kg/day, po for 4 days measured 1 hr post dose after 16 hrs fasting. Type of data set: functional. More on the design: scale not given: the % may be the effect or the level left.
The test system of data set [22] is Rattus norvegicus. Kind of data set: Reduction in blood KB level in fasted Sprague-Dawley rat at 8 to 300 umol/kg, po. The class given is functional. On the set-up: scale not given: the % may be the effect or the level left.
The species entered for data set [23] is Homo sapiens. Kind of data set: Inhibition of carnitine palmitoyltransferase in human fibroblasts assessed as [14]CO2 production from [U-14C]glucose at 5 to 50 uM by radiometric assay. More on the design: scale not given: the % may be the effect or the level left.
Data set [24] deals with Rattus norvegicus. The data set can be described thus: Reduction in blood glucose in fasted Sprague-Dawley rat at 0.6 to 60 umol/kg, po. On the set-up: scale not given: the % may be the effect or the level left. Type of data set: functional.
Data set [25] is described as follows: Toxicity in po dosed Sprague-Dawley rat assessed as hypoglycemic coma. The class given is organism-based. Conditions: in vivo.
In data set [26] the test system is Rattus norvegicus. The data set can be described thus: Reduction in blood glucose in adrenalectomized rat at 25 to 150 umol/kg, po. More on the design: scale not given: the % may be the effect or the level left. Type of data set: functional.
For data set [27], the system named is Rattus norvegicus. Kind of data set: Reduction in blood glucose in po dosed Sprague-Dawley rat. Type of data set: functional.
Data set [28] concerns Rattus norvegicus. Kind of data set: Increase in plasma FFAs level in fasted Sprague-Dawley rat at 8 to 300 umol/kg, po measured 2 to 4 hrs post dose. Type of data set: functional.
The subject of data set [29] is Rattus norvegicus. The data set can be described thus: Increase in plasma TG level in fasted Sprague-Dawley rat at 8 to 300 umol/kg, po measured 2 to 4 hrs post dose. Type of data set: functional.
Data set [30] has as its system Rattus norvegicus. Kind of data set: Inhibition of CPT1 in Sprague-Dawley rat liver mitochondria at 0.6 to 60 umol/kg, po measured 4 hrs post dose. The class given is functional.
The species named for data set [31] is Rattus norvegicus. The data set can be described thus: Reduction in oxidation rate in rat liver mitochondria treated at 0.05% or 0.2% dose through food-admix for 12 weeks. Type of data set: functional, organism-based. More on the design: scale not given: the % may be the effect or the level left.
The nature of data set [32]: Inhibition of carnitine palmitoyltransferase in hepatocytes from fasted rat assessed as oxidation of [U-14C]palmitate and production of acetoacetate and BHB. Type of data set: cell-based. The conditions noted are these: Hepatocyte.
In data set [33] the test system is Rattus norvegicus. Kind of data set: Reduction in blood glucose in fasted Sprague-Dawley rat at 8 to 300 umol/kg, po measured 2 hrs post dose. Type of data set: functional. On the set-up: scale not given: the % may be the effect or the level left.
For data set [34], the system named is Rattus norvegicus. The data set can be described thus: Inhibition of CPT1 in fasted Sprague-Dawley rat liver mitochondria at 0.6 to 60 umol/kg, po measured 4 hrs post dose. Type of data set: functional.
The species entered for data set [35] is Homo sapiens. The data set can be described thus: Inhibition of carnitine palmitoyltransferase in human fibroblasts assessed as [14]CO2 production at 5 to 50 uM from [U-14C]palmitate by radiometric assay. More on the design: scale not given: the % may be the effect or the level left.
Data set [36] relates to Rattus norvegicus. The data set can be described thus: Reduction in blood glucose in Sprague-Dawley rat at 600 umol/kg, po. Type of data set: functional. More on the design: scale not given: the % may be the effect or the level left.
Data set [37] has as its system Rattus norvegicus. Kind of data set: Reduction in blood KB in Sprague-Dawley rat at 0.6 to 60 umol/kg, po. The class given is functional. On the set-up: scale not given: the % may be the effect or the level left.

pEC50, pIC50: −log10 of the molar value.

Take `CCCCCCCCCCCCCCC1(C(=O)OC)CO1` (racemic) [METHYL PALMOXIRATE]: the Activity in [1] is on record as 40%; in data set [2], 8%; in data set [4], 50%; in data set [5], 70%; in data set [7], 78%; in data set [8], 6.5 mM. For the same compound, in data set [9], the Activity was 6.5 mM. In addition, the pIC50 in data set [3] was 7.34. For the same compound, the pEC50 in data set [6] was 6.00.
Turning to `O=C([O-])C1(CCCCCc2ccc(Cl)cc2)CO1.[Na+]` (racemic), the negative-log IC50 (pIC50) is 4.02 in [10], 4.98 in [12] and 5.30 in data set [32]. In addition, the Activity in data set [11] was 50%; in [13] it was 50%; in data set [14], < 50%; in data set [16], 24%; in [17], 78%; in [18], “<=35%”. The Activity in data set [19] is 43%; in data set [21], 60%; in data set [22], “<=75%”; in data set [23], 250%; in data set [24], “<=25%”; in data set [26], 34%. For the same compound, the Activity in data set [28] was 300%; in data set [29], “<=290%”; in [31], < 80%; in [33], “<=50%”; in data set [35], 90%; in [36], 80%. Further, the Activity entry in data set [37] is on record as “<=40%”. Also, the ED50 came out at 8.7 mg/kg in [15], 8.7 mg/kg in [20] and 9 mg/kg in [27]. Also, in data set [25], the LD50 was found to be 486 mg/kg. Moreover, the “inhibition (INH)” value in [30] is 99%; in [34], “<=98%”.
